Article PMC6930570, “2-Arylidene-1-indandiones as Pleiotropic Agents with Antioxidant and Inhibitory Enzymes Activities” (Molecules, 2019)

What was measured:
[1] = Reducing activity of the stable radical DPPH; type: biochemical
Method: The novel derivatives were studied for their interaction with the sTable 2,2-diphenyl-1-picrylhydrazyl free radical (DPPH)at concentration 50 µM, 100 µM and 200 µM after 20 and 60 min (Table 2). In this assay the DPPH radical is reduced transferring one electron from the antioxidant. Phenolic compounds such as catechol and derivatives generate phenoxide anions with strong antioxidant capacity. Nordihydroguaretic acid (NDGA), the reference compound acts by this mechanism. Compound 10 presents the highest scavenging activity at 100 µM after 20 min correlated with the presence of the phenolic OH. Compounds 3, 4, 5, 7 presented medium activities depending from time and concentration. The presence of the heteroatom O or S seems to influence the activity e.g., derivatives 1, 2, and 3. Replacement of phenyl ring (4) by a thienyl group (1) decreases antioxidant behavior. […] On the contrary the presence of the furyl ring (3) enhances reduction. Additionally, the presence of a π-dimethyl-amino group 6 reduces the scavenging ability whereas its absence in (5), increases the activity. The presence of two conjugated double bonds (5) leads to lower activity compared to the simpler compound 4. Compounds 9 and 10 present the highest milogP values (5.94). Both include a phenolic hydrogen in their structure. […] On the contrary in compound 9 steric reasons are possible to lead to a decrease. Lipophilicity seems to influence the interaction of compound 10.
To a solution of DPPH in absolute ethanol an equal volume of the compounds with final concentrations of 50, 100 and 200 µM from a stock solution of 10 mM (in 1% DMSO and ethanol) was added. After 20 and 60 min the absorbance was recorded at 517 nm at room temperature (Table 2).

soybean lipoxygenase = target: T1, soybean lipoxygenase (Glycine max, UniProt P08170); assay: Soybean lipoxygenase inhibition in vitro; type: biochemical; conditions: sodium linoleate substrate, no = no action under the experimental conditions; for inhibition at 100 µM: read-out: LOX (% Inhibition 100 µM)
T1 construct: purchased Sigma Chemical, Co. (St. Louis)
T1 sequence (P08170 1-839): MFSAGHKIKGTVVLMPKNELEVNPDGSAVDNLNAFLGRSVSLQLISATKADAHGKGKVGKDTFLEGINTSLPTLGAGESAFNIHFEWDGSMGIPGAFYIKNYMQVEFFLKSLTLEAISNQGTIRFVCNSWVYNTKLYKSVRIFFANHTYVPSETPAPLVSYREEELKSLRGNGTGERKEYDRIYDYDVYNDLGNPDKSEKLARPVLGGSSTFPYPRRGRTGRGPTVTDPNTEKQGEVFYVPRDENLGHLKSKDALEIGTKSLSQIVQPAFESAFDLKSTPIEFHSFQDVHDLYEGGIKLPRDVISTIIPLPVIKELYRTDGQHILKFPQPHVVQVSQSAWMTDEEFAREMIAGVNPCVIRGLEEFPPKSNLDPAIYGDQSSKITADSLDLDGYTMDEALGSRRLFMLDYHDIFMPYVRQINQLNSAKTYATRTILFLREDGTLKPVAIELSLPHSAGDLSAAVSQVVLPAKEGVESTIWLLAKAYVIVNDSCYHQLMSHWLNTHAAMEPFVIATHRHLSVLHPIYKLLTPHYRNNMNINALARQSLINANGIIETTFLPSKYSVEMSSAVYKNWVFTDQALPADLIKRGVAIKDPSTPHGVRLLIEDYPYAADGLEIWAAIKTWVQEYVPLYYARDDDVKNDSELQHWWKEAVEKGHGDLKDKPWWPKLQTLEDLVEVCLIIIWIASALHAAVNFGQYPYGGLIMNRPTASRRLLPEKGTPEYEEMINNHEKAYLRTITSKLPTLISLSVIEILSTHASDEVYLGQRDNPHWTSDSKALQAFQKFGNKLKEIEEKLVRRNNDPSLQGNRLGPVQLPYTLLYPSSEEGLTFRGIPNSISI
Method: Thus, we used soybean LOX in our in vitro experiments.
In vitro study was performed as reported previously by our group. Sodium linoleate (0.1 mM) and 0.2 mL of enzyme solution (1/9 × 104 w/v in saline) were used for the incubation of the tested derivatives.

[2] = ABTS+. decolorization assay; type: biochemical; conditions: 1 min, no = no action under the experimental conditions
From the text: The radical cation ABTS^+• is directly generated through potassium persulfate by oxidation with no participation of an intermediary radical and then the reduction is followed by adding electron-donating antioxidants. In this assay the radical is generated before adding the antioxidant (decolorization assay). […] It seems that lipophilicity influences the activity, since both are presenting high lipophilicity values. […] The radical cation ABTS^+• was generated from an ABTS stock solution in water (7 mM) which was mixed with potassium persulfate (2.45 mM) and left in the dark at room temperature for 12–16 h before use. The results are recorded after 1min of the mixing solutions at 734 nm and compared to the appropriate standard inhibitor Trolox (Table 3).

[3] = system: carrageenin-induced rat paw edema; assay: Inhibition of the carrageenin-induced rat paw edema (CPE); type: in vivo, Fisher 344 rats; conditions: 0.01 mmol/kg body weight, intraperitoneally, 3.5 h after carrageenin; for inhibition in vivo at 10 µmol/kg: Rattus norvegicus, ip, read-out: CPE % (reduction of the rat paw edema)
From the text: Carrageenin-induced rat paw edema (CPE) model was used to study the in vivo anti-inflammatory activity of the tested derivatives and the results are presented in Table 3. […] Compounds 2, 7, 8, 10, and 12 presented small differences in their biological activity. The presence of the thienyl group as well as of the furyl leads to higher anti-inflammatory activity (1 and 3) while substitution with a phenyl group leads to two-fold decrease of the activity (28%).
Edema was induced in the right hind paw of Fisher 344 rats (150–200 g) by the intradermal injection of 0.1 mL 2% carrageenin in water. Both sexes were used while females pregnant were excluded. Each group was composed of 6–15 animals. The animals, which have been bred in our laboratory, were housed under standard conditions and received a diet of commercial food pellets and water ad libitum during the maintenance but they were entirely fasted during the experiment period. Our studies were in accordance with recognised guidelines on animal experimentation. (guidelines for the care and use of laboratory animals published by the Greek Government 160/1991, based on EU regulations 86/609). Rats were kept in the Centre of the School of Veterinary Medicine (EL54 BIO42), Aristotle University of Thessaloniki, which is registered by the official state veterinary authorities (presidential degree 56/2013, in harmonization with the European Directive 2010/63/EEC). The experimental protocols were approved by the Animal Ethics Committee of the Prefecture of Central Macedonia (no. 270079/2500). The tested compounds 0.01 mmol/kg body weight were suspended in water, with a few drops of Tween 80 and ground in a mortar before use and were given intraperitoneally simultaneously with the carrageenin injection. The rats were euthanized 3.5 h after carrageenin injection. The difference between the weight of the injected and uninjected paws was calculated for each animal. The change in paw weight was compared with that in control animals (treated with water) and expressed as a percent inhibition of the edema CPE % values […] [58, 59]. Indomethacin in 0.01 mmol/kg (47%). Values CPE % are the mean from two different experiments with a standard error of the mean less than 10% (Table 3).

SMILES | inhibition at 100 µM (soybean lipoxygenase) [%] | LOX (% Inhibition 100 µM) (soybean lipoxygenase) | RA% 50 µM 20 min [1] [%] | RA% 50 µM 60 min [1] [%] | RA% 100 µM 20 min [1] [%] | RA% 100 µM 60 min [1] [%] | RA% 200 µM 20 min [1] [%] | RA% 200 µM 60 min [1] [%] | ABTS+. % 100 µM (decolorization activity) [2] | inhibition in vivo at 10 µmol/kg [3] [%] | CPE % (reduction of the rat paw edema) [3] [%]
Cc1ccsc1C=C1C(=O)c2ccccc2C1=O [Compound 2, (Z)-2-((3-methylthiophen-2-yl)methylene)-1H-indene-1,3(2H)-dione] | 45 |  | 2 | 2 | 16 | 16 | 4 | 7 | 2% | 45 | 
CN(C)c1ccc(/C=C\C=C2C(=O)c3ccccc3C2=O)cc1 [Compound 6, (Z)-2-(3-(4-(dimethylamino)phenyl)allylidene)-1H-indene-1,3(2H)-dione] | 17.7 |  | 6 | 6 | 22 | 23 | 15 | 18 | 22% |  | 
CC(C)(C)c1cc(C=C2C(=O)c3ccccc3C2=O)c(O)c(C(C)(C)C)c1 [Compound 9, (Z)-2-(3,5-di-tert-butyl-2-hydroxybenzylidene)-1H-indene-1,3(2H)-dione] |  | no | 4 | 3 | 3 | 1 | 6 | 6 | no |  | 
O=C1C(=Cc2c[nH]c3ccccc23)C(=O)c2ccccc21 [Compound 12, (Z)-2-((1H-indol-3-yl)methylene)-1H-indene-1,3(2H)-dione] | 58.9 |  | 3 | 3 | 17 | 17 | 4 | 6 | no | 42 | 

The next lines start with results.

inhibition at 100 µM (soybean lipoxygenase) [%] | LOX (% Inhibition 100 µM) (soybean lipoxygenase) | SMILES | RA% 50 µM 20 min [1] [%] | RA% 50 µM 60 min [1] [%] | RA% 100 µM 20 min [1] [%] | RA% 100 µM 60 min [1] [%] | RA% 200 µM 20 min [1] [%] | RA% 200 µM 60 min [1] [%] | ABTS+. % 100 µM (decolorization activity) [2] | inhibition in vivo at 10 µmol/kg [3] [%] | CPE % (reduction of the rat paw edema) [3] [%]
35.7 |  | Cc1ccc(C=C2C(=O)c3ccccc3C2=O)o1 [Compound 3, (Z)-2-((5-methylfuran-2-yl)methylene)-1H-indene-1,3(2H)-dione] | 20 | 23 | 37 | 40 | 61 | 75 | 20% | 50 | 
35 |  | O=C1C(=Cc2ccccc2)C(=O)c2ccccc21 [Compound 4, 2-benzylidene-1H-indene-1,3(2H)-dione] | 5 | 10 | 26 | 32 | 23 | 32 | 19% | 28 | 
67.3 |  | O=C1C(=Cc2cccc(Oc3ccccc3)c2)C(=O)c2ccccc21 [Compound 7, (Z)-2-(3-phenoxybenzylidene)-1H-indene-1,3(2H)-dione] | 27 | 35 | 40 | 50 | 75 | 85 | 37% | 41 | 41
3.6 |  | O=C1C(=Cc2ccc(OCc3ccc(Br)cc3)cc2)C(=O)c2ccccc21 [Compound 8, (Z)-2-(4-((4-bromobenzyl)oxy)benzylidene)-1H-indene-1,3(2H)-dione] | 4 | 5 | 7 | 7 | 0 | 0 | 16% | 46 | 46
 | no | CC(C)(C)c1cc(C=C2C(=O)c3ccccc3C2=O)cc(C(C)(C)C)c1O [Compound 10, (Z)-2-(3,5-di-tert-butyl-4-hydroxybenzylidene)-1H-indene-1,3(2H)-dione] | 13 | 17 | 100 | 85 | 71 | 71 | 39% | 42 | 
